Assay results: patent US20210402211A1, “LIGHT-HYDROGEN THERAPY INCLUDING LIGHTING MODULE, LIGHTING APPARATUS, AND LIGHTING METHOD FOR PARKINSON'S DISEASE PATIENTS” (priority 2020, published 2021)

Tested on: PD patients
Details: without light therapy, in a short time

[HH] [hydrogen, Molecular hydrogen]
effectiveness of hydrogen therapy alone: not that effective
